Assay results as given in patent publication US4440740A, “α-Keto aldehydes as enhancing agents of gastro-intestinal drug absorption” (Merck & Co., Inc., priority 1982, dated 1984).

Columns and labels:
[1] = duodenal absorption of cyclic hexapeptide somatostatin analog with phenylglyoxal; conditions: rat, in vivo, 0.4 mg, pH 5, duodenal, 0.4 mg peptide, 250 μl, read-out: Percent Bioavailability
Method: (§1) Effect of Phenylglyoxal on Rectal and Duodenal Absorption of a Cyclic Hexapeptide Somatostatin Analog Specifically Cyclo-(N-Me-Ala-Tyr-D-Trp-Lys-Val-Phe)
(§2) 250 μl volume, pH 5/animal
(§3) Cyclo-(N--Me--Ala--Tyr--D-Trp--Lvs--Val--Phe)
duodenal 250 μl injection 1 cm distal to pylorus

[2] = rectal absorption of cyclic hexapeptide somatostatin analog with phenylglyoxal; conditions: rat, in vivo, 0.4 mg, pH 5, rectal, 0.4 mg peptide, 250 μl, read-out: Percent Bioavailability
Method: as §1, §2, §3
microenema 250 μl at 2.5 cm intrarectal depth

[3] = rectal absorption of Ara-C with methylglyoxal or phenylglyoxal; conditions: in vivo
Excerpt: Effect of methylglyoxal and phenylglyoxal on rectal absorption of Ara-C, 4-Amino-1β-D-Arabinofuranosyl-2(1H)-pyrimidinone (Cytarabine), an antineoplastic, antiviral agent
Ara-C present at 1% w/v concentration

[4] = rectal drug bioavailability in rats, aqueous microenema with α-keto aldehyde absorption enhancer, versus intravenous administration; format: in vivo; conditions: 10 mg/kg
Method: Aqueous microenemas were administered to rats at an intrarectal depth of 2.5 cm containing 10 mg/kg target drug and 20 mg/kg α-keto aldehyde absorption enhancer. Serum samples were collected and drug bioavailability determined versus intravenous administration of the target compound. Glyoxylic acid, methylglyoxal and phenylglyoxal were tested as representative compounds in the α-keto aldehyde series. Data has been oriented for rectal delivery of two antibiotics (shown below).

## CC(C)[C@@H]1NC(=O)[C@H](CCCCN)NC(=O)[C@@H](Cc2c[nH]c3ccccc23)NC(=O)[C@H](Cc2ccc(O)cc2)NC(=O)[C@H](C)N(C)C(=O)[C@H](Cc2ccccc2)NC1=O [Cyclo-(N-Me-Ala-Tyr-D-Trp-Lys-Val-Phe)]
[1]; phenylglyoxal 0 mg/ml
  bioavailability: 1%
[1]; phenylglyoxal 25 mg/ml
  bioavailability: 20%
[2]; phenylglyoxal 0 mg/ml
  bioavailability: 7%
[2]; phenylglyoxal 25 mg/ml
  bioavailability: 34%

## O=CC(=O)c1ccccc1 [Phenylglyoxal, phenyl glyoxal]
[3]
  % Bioavailability of Ara-C: 70.5%
[3]; 90 min
  0 min-90 min (quantity head is drawing 2) of Ara-C: 798 ± 71.0 µg·min/mL

## CO[C@@]1(NC(=O)Cc2cccs2)C(=O)N2C(C(=O)O)=C(COC(N)=O)CS[C@@H]21 [sodium cefoxitin, (6R-cis)-3-[[(Aminocarbonyloxy]methyl]-7-methoxy-8-oxo-7-[(2-thienylacetyl))amino]-5-thia-1-azabicyclo-[4.2.0]oct-2-ene-2-carboxylic acid]
[4]; rat, in vivo
  bioavailability: 5%

## Nc1ccn([C@@H]2O[C@H](CO)[C@@H](O)[C@@H]2O)c(=O)n1 [Ara-C, 4-Amino-1β-D-Arabinofuranosyl-2(1H)-pyrimidinone, reference compound]
[3]; rectal, Ara-C 1% w/v, adjuvant: none
  bioavailability: 13.1%
[3]; rectal, Ara-C 1% w/v, adjuvant: none, 0-90 min, read-out: 0 min-90 min (quantity head is drawing 2) of Ara-C (converted)
  AUC at 1.5 h: 1250 ng·h/mL

## gentamicin sulfate
[4]; rectal, control formulation without keto aldehyde adjuvant, mean, 3 animals
  % bioavailability, control formulations: 5%
